Laboratory results as given in patent US20040072746A1, “Inhibitors of monocarboxylate transport” (priority 2001, published 2004).
Where two headings read alike, the source gives them in different places. Each block holds one compound with its values, some of them ahead of it.

Columns and labels:
[1] = target: T1, MCT1 (Homo sapiens, UniProt P53985, D490E); experiment: Yeast expressed MCT1 filter binding assay (competition with 3H-ligand C); parameters: The invention is not restricted to the use of full-length native human MCTs; made in house; host or cells: Saccharomyces cerevisiae BY4742 (jen1 deletion), membrane preparation; plasmid pACES14-hMCT1; details: yeast membrane MCT1 filter binding, 2.5 nM 3H-ligand C
T1 sequence (P53985 1-500 D490E): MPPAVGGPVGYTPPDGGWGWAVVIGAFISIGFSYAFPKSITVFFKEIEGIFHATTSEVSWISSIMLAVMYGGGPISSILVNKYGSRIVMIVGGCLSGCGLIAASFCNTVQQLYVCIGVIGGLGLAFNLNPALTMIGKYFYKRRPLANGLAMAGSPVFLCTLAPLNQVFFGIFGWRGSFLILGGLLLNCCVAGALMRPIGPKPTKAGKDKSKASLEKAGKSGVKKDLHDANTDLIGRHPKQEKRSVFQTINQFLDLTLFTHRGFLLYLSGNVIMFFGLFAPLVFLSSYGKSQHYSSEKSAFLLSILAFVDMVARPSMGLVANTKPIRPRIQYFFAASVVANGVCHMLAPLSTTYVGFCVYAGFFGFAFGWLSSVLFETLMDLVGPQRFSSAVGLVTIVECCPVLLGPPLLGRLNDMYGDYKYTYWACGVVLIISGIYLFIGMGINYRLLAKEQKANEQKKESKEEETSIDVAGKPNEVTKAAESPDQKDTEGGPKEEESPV
Description: Assay to Measure the Potency of Selected Compounds Using a Filter Binding Assay
Competition assays can be used to measure the affinity of unlabelled compound for MCT1. […] 180 μl of yeast membranes expressing MCT1 in assay buffer containing typically 0.5 to 1 μg total protein was added to start the reaction. […] The competition assay was incubated at 2 hours at room temperature with shaking. Experimental data points were usually carried out in triplicate. The membranes were harvested onto GF-B filter plates and washed with assay buffer without BSA, dried, scintillant added and counts detected using a tritium program on a Packard Top Count plate reader. The results were analysed by subtraction of the non-specific binding from each of the experimental points and then fitting a sigmoidal curve through a semi-log plot of the data in Microcal Origin.

[2] = target: T2, MCT1 with a streptavidin-binding sequence tag (Homo sapiens, UniProt P53985, D490E); experiment: Yeast membrane MCT1-strep tagged SPA assay (125I ligand A); details: 0.1 nM 125I ligand A
T2 construct: The invention is not restricted to the use of full-length native human MCTs; made in house; host or cells: Saccharomyces cerevisiae BY4742 (jen1 deletion), membrane preparation; plasmid pACES14-MCT1-strep tag
T2 sequence (P53985 1-500 D490E): T1 sequence (P53985 1-500 D490E)
Description: Yeast membranes expressing MCT1 with a streptavidin-binding sequence tag were then added to give a final concentration of 37 μg/ml protein and gently rolled for >30 minutes at room temperature. The beads/membranes were then washed by centrifugation at ˜650 g for 10 minutes and resuspended in assay buffer+0.05% BSA. The washing was repeated once before resuspended in the appropriate volume of assay buffer+0.05% BSA.
Finally, 80 μl of the membrane/bead suspension was added to each well. […] The raw counts were analysed by averaging replicates, subtraction of non-specific binding and the subsequent calculation of % inhibition of binding of the iodinated ligand.

[3] = tested on: activated T-lymphocytes; experiment: Intracellular lactate levels in activated T-lymphocytes (lactate oxidase); type: cell-based; details: Homo sapiens, T-lymphocyte; Mean±s.e.mean (mean±range for n=2); read-out: pIA50 Intracellular Lactate (converted)
Description: (§1) PBMCs were prepared as described above by separation over Lymphoprep and T-lymphocytes were then enriched by purification on a nylon wool column. Briefly, 0.6 g nylon wool was inserted into a 10 ml syringe and this was autoclaved. […] The PBMC were resuspended in 1 ml of pre-warmed RPMI (20% HS) and were loaded onto the nylon wool column. The column was incubated for 45 min at 37° C. followed by elution of the T-cells by adding 10 ml RPMI (20% HS) (prewarmed to 37° C.) dropwise to the column. The T-cells obtained from the elution of the column were centrifuged (850 g for 5 min) and resuspended in RPMI containing L-glutamine and 5% human serum and stimulated with 0.5 ng/ml PMA and 500 ng/ml lonomycin for 48 h.
100 μl of each concentration were added to triplicate wells of a 24-well plate. T-cells were then added (1 ml per well) and were cultured for 4 h under standard cell culture conditions. The cells were then transferred from each well to microfuge tubes and were centrifuged at 360 g for 5 min at 4° C. The supernatant was discarded and the cell pellet was resuspended in 1 ml of ice-cold PBS, pH5.0. The cells were washed twice in PBS by centrifugation (360 g, 5 min, 4° C.) followed by resuspension of the cell pellet in 100 μl deionized water. The cells were incubated for 15 min at 4° C. to allow cell lysis to occur and the cell debris was removed by centrifugation at 15000 g for 10 min at 4° C. 10 μl of each supernatant sample were used for the lactate determination.
(§2) The assay was carried out in 96-well plates at room temperature. 10 μl of standard or sample were added to each well followed by 200 μl of the Lactate Reagent. […] The data were collected and analysed using SOFTmax PRO software (Molecular Devices).

[4] = tested on: activated T-lymphocytes; experiment: Extracellular lactate levels in activated T-lymphocytes (lactate oxidase); type: cell-based, human
Description: as §1
20 μl of each concentration were added to triplicate wells of a 96-well plate. T-cells were then added (200 μl per well, 2×10^5 cells) and were cultured for 4 h under standard cell culture conditions. The cell supernatants were collected from each well after the cells were pelleted by centrifugation of the plate at 850 g for 5 min at 4° C. 10 μl of each supernatant sample were used for the lactate determination.
as §2

[5] = tested on: activated T-lymphocytes; experiment: DNA synthesis ([3H]-thymidine incorporation) in activated T-lymphocytes; type: cell-based; details: Homo sapiens, T-lymphocyte; Mean±s.e.mean (mean±range for n=2); read-out: pIA50 DNA (converted)
Description: as §1
DNA synthesis was assessed by measuring the incorporation of [^3H]-thymidine. The assay was carried out in a 96-well plate. 20 μl of test compounds at 10× the final concentration were added to the plate followed by 200 μl of T-cells per well (2×10^5 cells). The cells were cultured for 4 h under standard cell culture conditions and cultures were pulsed with ^3H-thymidine (0.5 μCi/well; Amersham) for the final hour of the incubation.

[6] = tested on: peripheral blood mononuclear cells (PBMC); experiment: T-lymphocyte proliferation, PMA/ionomycin stimulated PBMC, 3 days; details: Homo sapiens, 72 h, read-out: pIA50 Proliferation (3 days) (converted)
Description: The cell signalling pathways triggered by T-cell activation through the T cell receptor and CD28 can be mimicked in vitro using a phorbol ester, phorbol 12-myristate 13-acetate (PMA), which activates protein kinase C, and ionomycin, which induces calcium release from internal cellular stores. PMA and ionomycin-stimulated proliferation of peripheral blood mononuclear cells (PBMC), of which the predominant cell type is T-lymphocytes, provides a suitable assay for measuring the ability of small molecules to block T-cell proliferation.
Blood was centrifuged at 850 g for 10 minutes and the plasma was removed. […] The blood/Lymphoprep layers were centrifuged at 850 g for 20 minutes at 18° C. (with no brake).
10 μl of compound in solution was then added to the 96-well flat bottom assay plate (final volume of 200 μl). […] Both were diluted to 4× the final assay concentration in complete medium. 50 μl of each reagent was dispensed per well to give a final assay concentration of 0.5 ng/ml PMA and 500 ng/ml ionomycin. Control wells received 100 μl cells with PMA only (negative control 1), with ionomycin only (negative control 2) and 100 μl cells with 50 μl PMA and 50 μl ionomycin with no test compound (positive control). 100 μl complete medium was added to the negative controls. […]

[7] = tested on: IgG2a production; experiment: Inhibition of murine antibody production, IgG2a (ovalbumin in poly I:C); type: in vivo, Balb/c mice; details: Mus musculus, sc, 168 h, subcutaneous, 7 days following antigenic boost
Description: To measure the effect of the compound on IgG2a production, Balb/c mice were immunised with ovalbumin in poly I:C adjuvant (polyinosinic:polycytidylic acid adjuvant) and left for 14 days before being re-challenged with ovalbumin in buffered saline vehicle and left for a further 7 days. Serum samples were taken from the mice and analysed for total and specific IgG2a. Compound was dosed daily from re-challenge to termination prior to serum collection. For total IgG2A, microtitre plates were coated with 5 ug/ml of goat anti-mouse IgG2a in PBS and incubated overnight at 4° C. The plates were then washed four times with PBS containing 0.05% Tween 20 and then blocked with 1% BSA at room temperature for 2 hours. This was followed by two further plate washings. The serum samples and IgG2a standards were added to the wells in duplicate and incubated at 4° C. overnight. The plates were then washed a further four times before adding 50 ul alkaline phosphatase conjugated goat anti-mouse IgG appropriately diluted in 0.1% BSA in PBS and left at room temperature for an hour. The plate was washed a further four times before enzyme substrate (p-nitrophenyl phosphate in 1M diethanolamine buffer pH 9.8) at 1 mg/ml was added. Once the colour reaction developed, the absorbance of the wells at 405 nm was read in a spectrophotometer. […]

[8] = tested on: IgE production; experiment: Inhibition of murine antibody production, IgE (ovalbumin immunised); type: in vivo, Balb/c mice; details: 10 days following antigenic boost
Description: Balb/c mice were immunised with 0.5 mg/kg ovalbumin (OVA) and 200 mg/kg aluminium hydroxide gel in saline intraperitoneally and left for 29 days before being re-challenged intraperotoneally with 0.5 mg/kg ovalbumin in buffered saline vehicle and left for a further 10 days. Compound was dosed daily from re-challenge to termination prior to serum collection. Control groups were dosed with compound vehicle only. On completion of dosing, serum samples were taken from the mice and analysed for total and specific levels of IgE.
For total IgE, microtitre plates were coated with 5 ug/ml monoclonal rat anti-mouse IgE in phosphate buffered saline (PBS) and incubated overnight at 4° C. The plates were then washed four times with PBS containing 0.05% Tween 20 and then blocked with 1% BSA in PBS at room temperature for 2 hours. This was followed by two further plate washings.
The serum samples and IgE standards were added to the wells in duplicate and incubated overnight. The plates were then washed a further four times before adding 50 ul biotinylated monoclonal rat anti-mouse IgE appropriately diluted in 0.1% BSA in PBS for 2 hours. The plate was washed for a further four times before adding 50 ul streptavidin alkaline phosphatase conjugate appropriately diluted in 1% BSA in PBS at room temperature for 50 minutes. The plate was washed a further four times before enzyme substrate (paranitrophenyl phoshate in 1M diethanolamine buffer pH 9.8) at 1 mg/ml was added. Once the colour reaction developed, the plate was read at 405 nm. Levels of total IgE in serum samples were extrapolated from curve obtained with IgE standards.
For specific IgE, the methodology was similar except for the following. The microtitre plates were coated with 50 ug/ml rat anti-mouse IgE. The serum samples or normal control sera were added to the washed plates. Biotinylated OVA diluted in 0.1% BSA in PBS was used as enzyme marker.

IC50 [1]: 787 nM
IC50 [2]: 32.2 nM
Structure (SMILES): CC(C)Cn1c(=O)n(C)c(=O)c2cc(Cc3nc4ccccc4s3)sc21 [Ligand 4, 6-([benzothiazol-2-yl]methyl)-3-methyl-1-(2-methylpropyl)thieno[2,3-d]pyrimidine-2,4(1H,3H)-dione]

EC50 [3]: 2.29 nM
IC50 ([4]; Homo sapiens, T-lymphocyte, Mean±s.e.mean (mean±range for n=2), read-out: pIA50 Extracellular Lactate (converted)): 3.8 nM
IC50 [5]: 2.69 nM
Structure (SMILES): CON(C)C(=O)c1c(Cn2c(C)nc(Cl)c2Cl)sc2c1c(=O)n(C)c(=O)n2CC(C)C [Ligand 5, 6-[(4,5-Dichloro-2-methyl-1H-imidazol-1-yl)methyl]-1,2,3,4-tetrahydro-N-methoxy-N,3-dimethyl-1-(2-methylpropyl)-2,4-dioxo-thieno[2,3-d]pyrimidine-5-carboxamide]
IC50 [6]: 1.66 nM

Structure (SMILES): CC(C)Cn1c(=O)n(C)c(=O)c2c(SCCCO)c(Cc3cccc4ccccc34)sc21 [Ligand 1, 5-[(3-hydroxypropyl)thio]-3-methyl-1-(2-methylpropyl)-6-(1-napthalenylmethyl)thieno[2,3-d]pyrimidine-2,4(1H,3H)-dione]
EC50 [3]: 0.407 nM
ED50 ([7]; read-out: ED50, specific IgG2a production): 10 mg/kg
ED50 ([7]; read-out: ED50, total IgG2a production): 30 mg/kg
inhibition of OVA specific IgE ([8]; 3 mg/kg subcutaneous): 64%
inhibition of total IgE ([8]; 3 mg/kg subcutaneous): 67%
inhibition of OVA specific IgE ([8]; 30 mg/kg subcutaneous): 53%
inhibition of total IgE ([8]; 30 mg/kg subcutaneous): 84%
maximum level of inhibition, extracellular lactate [4]: 30±1.9%

IC50 [1]: 105 nM
IC50 [2]: 15.4 nM
Structure (SMILES): CC(C)Cn1c(=O)n(C)c(=O)c2cc(Cc3ccnc4ccccc34)sc21 [Ligand 3, 6-(4-quinolinylmethyl)--3-methyl-1-(2-methylpropyl)-thieno[2,3-d]pyrimidin-2,4(1H,3H)-dione]
